{"source": "ChEMBL document CHEMBL1157199", "about": "“Effects of modifications of the linker in a series of phenylpropanoic acid derivatives: Synthesis, evaluation as PPARalpha/gamma dual agonists, and X-ray crystallographic studies” (Bioorg Med Chem, 2008)", "key": {"[1]": {"biological_target": "T1, Peroxisome proliferator-activated receptor alpha (Homo sapiens, UniProt Q07869)", "T1 sequence (Q07869 whole entry)": "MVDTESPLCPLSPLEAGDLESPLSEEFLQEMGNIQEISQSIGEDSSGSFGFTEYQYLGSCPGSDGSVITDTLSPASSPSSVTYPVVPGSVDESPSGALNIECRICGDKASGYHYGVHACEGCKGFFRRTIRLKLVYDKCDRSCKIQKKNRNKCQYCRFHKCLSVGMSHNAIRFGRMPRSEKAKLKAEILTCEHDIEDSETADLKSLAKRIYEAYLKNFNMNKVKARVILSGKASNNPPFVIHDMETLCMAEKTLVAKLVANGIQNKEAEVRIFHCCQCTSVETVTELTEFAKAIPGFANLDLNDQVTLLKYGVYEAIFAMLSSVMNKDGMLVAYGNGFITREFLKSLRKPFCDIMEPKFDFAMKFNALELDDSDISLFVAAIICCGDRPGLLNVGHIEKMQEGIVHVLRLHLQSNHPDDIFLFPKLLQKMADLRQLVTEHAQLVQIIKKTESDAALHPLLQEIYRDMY"}, "Rattus norvegicus [2]": {"system": "Rattus norvegicus", "experiment": "Decrease in fasting serum triglyceride level in Zucker diabetic fa/fa rat at 10 mg/kg, po", "assay_type": "functional", "parameters": "scale not given: the % may be the effect or the level left"}, "Rattus norvegicus [3]": {"system": "Rattus norvegicus", "experiment": "Reduction of plasma glucose level in Zucker diabetic fa/fa rat at 10 mg/kg, po", "assay_type": "functional", "parameters": "scale not given: the % may be the effect or the level left"}, "Rattus norvegicus [4]": {"system": "Rattus norvegicus", "experiment": "Increase in high density lipoprotein level in Zucker diabetic fa/fa rat at 10 mg/kg, po", "assay_type": "functional"}, "[5]": {"experiment": "Clearance in Sprague-Dawley rat plasma after 24 hrs", "assay_type": "ADME, organism-based"}, "[6]": {"experiment": "Bioavailability in Sprague-Dawley rat plasma at 5 mg/kg, po after 24 hrs", "assay_type": "ADME, organism-based"}, "Mus musculus [7]": {"organism": "Mus musculus", "experiment": "Antihyperglycemic effect in ob/ob B6.V-Lepob/J mouse assessed as reduction in plasma glucose level after 14 days relative to control", "assay_type": "functional, organism-based"}, "[8]": {"experiment": "AUC in Sprague-Dawley rat plasma at 5 mg/kg, po after 24 hrs", "assay_type": "ADME, organism-based", "parameters": "time < 24 hr, dose 5 mg/kg, route oral"}, "[9]": {"experiment": "Volume of distribution at steady state in Sprague-Dawley rat plasma after 24 hrs", "assay_type": "ADME, organism-based", "details": "read-out: Vdss"}, "[10]": {"experiment": "Half life in Sprague-Dawley rat plasma at 5 mg/kg, iv after 24 hrs", "assay_type": "ADME, organism-based", "parameters": "dose 5 mg/kg, route intravenous"}, "Mus musculus [11]": {"system": "Mus musculus", "experiment": "Antihyperglycemic effect in ob/ob B6.V-Lepob/J mouse assessed as reduction in blood glucose level at 20 mg/kg once daily after 14 days relative to control", "assay_type": "functional", "parameters": "scale not given: the % may be the effect or the level left"}, "[12]": {"experiment": "Half life in Sprague-Dawley rat plasma at 1 mg/kg, iv after 24 hrs", "assay_type": "ADME, organism-based", "parameters": "dose 1 mg/kg, route intravenous"}}, "note": "The source made the active and inactive calls. The calls are words filed in the database; no cut-off is given here."}
{"smiles": "CN(C/C=C/c1ccc(C[C@@H](C(=O)O)n2cccc2)cc1)c1ccccc1", "values": [{"measurement": "EC50", "setting": "[1]", "value": "> 30", "unit": "µM"}]}
{"smiles": "Cc1oc(-c2ccccc2)nc1CCOc1ccc(C[C@@H](C(=O)O)n2cccc2)cc1", "values": [{"measurement": "Activity", "setting": "Rattus norvegicus [2]", "value": 24, "unit": "%"}, {"measurement": "Activity", "setting": "Rattus norvegicus [3]", "value": 40, "unit": "%"}, {"measurement": "Activity", "setting": "Rattus norvegicus [4]", "value": 31, "unit": "%"}]}
{"smiles": "Cc1oc(-c2ccccc2)nc1CC#Cc1ccc(CC(C(=O)O)c2cccc(-c3ccccc3)c2)cc1", "note": "(racemic)", "values": [{"measurement": "EC50", "setting": "[1]", "value": 2.8, "unit": "µM"}]}
{"smiles": "Cc1oc(-c2ccccc2)nc1CN(C)Cc1ccc(C[C@@H](C(=O)O)n2cccc2)cc1", "values": [{"measurement": "EC50", "setting": "[1]", "value": 12, "unit": "µM"}]}
{"smiles": "Cc1oc(-c2ccccc2)nc1CNCc1ccc(C[C@@H](C(=O)O)n2cccc2)cc1", "values": [{"measurement": "EC50", "setting": "[1]", "value": "> 30", "unit": "µM"}]}
{"smiles": "Cc1oc(-c2ccccc2)nc1CCCc1ccc(C[C@@H](C(=O)O)n2cccc2)cc1", "values": [{"measurement": "clearance", "setting": "[5]", "value": 5.3, "unit": "mL/min/kg"}, {"measurement": "bioavailability", "setting": "[6]", "value": 50, "unit": "%"}, {"measurement": "Activity", "setting": "Mus musculus [7]", "value": "Active"}, {"measurement": "AUC at 24 h", "setting": "[8]", "value": 8650, "unit": "ng·h/mL"}, {"measurement": "Vd", "setting": "[9]", "value": 1.06, "unit": "L/kg"}, {"measurement": "half-life", "setting": "[10]", "value": 504, "unit": "min"}, {"measurement": "Activity", "setting": "Mus musculus [11]", "value": 70, "unit": "%"}]}
{"smiles": "CN(CC#Cc1ccc(CC(C(=O)O)n2cccc2)cc1)c1ccccn1", "note": "(racemic)", "values": [{"measurement": "EC50", "setting": "[1]", "value": "> 100", "unit": "µM"}]}
{"smiles": "CC(=O)N(Cc1ccc(C[C@@H](C(=O)O)n2cccc2)cc1)Cc1nc(-c2ccccc2)oc1C", "values": [{"measurement": "EC50", "setting": "[1]", "value": "> 30", "unit": "µM"}]}
{"smiles": "Cc1oc(-c2ccccc2)nc1CC#Cc1ccc(CC(C(=O)O)c2cccnc2)cc1", "note": "(racemic)", "values": [{"measurement": "EC50", "setting": "[1]", "value": 16, "unit": "µM"}]}
{"smiles": "Cc1oc(-c2ccccc2)nc1CC#Cc1ccc(CC(C(=O)O)c2ccc(-c3ccccc3)cc2)cc1", "note": "(racemic)", "values": [{"measurement": "EC50", "setting": "[1]", "value": 4, "unit": "µM"}]}
{"smiles": "CN(C/C=C/c1ccc(C[C@@H](C(=O)O)n2cccc2)cc1)c1ccccn1", "values": [{"measurement": "EC50", "setting": "[1]", "value": 29, "unit": "µM"}]}
{"smiles": "Cc1oc(-c2ccccc2)nc1C/C=C/c1ccc(C[C@@H](C(=O)O)n2cccc2)cc1", "values": [{"measurement": "clearance", "setting": "[5]", "value": 0.9, "unit": "mL/min/kg"}, {"measurement": "bioavailability", "setting": "[6]", "value": 62, "unit": "%"}, {"measurement": "Activity", "setting": "Mus musculus [7]", "value": "Active"}, {"measurement": "AUC at 24 h", "setting": "[8]", "value": 55400, "unit": "ng·h/mL"}, {"measurement": "Vd", "setting": "[9]", "value": 0.408, "unit": "L/kg"}, {"measurement": "Activity", "setting": "Mus musculus [11]", "value": 71, "unit": "%"}, {"measurement": "half-life", "setting": "[12]", "value": 336, "unit": "min"}]}
{"smiles": "CN(CC#Cc1ccc(C[C@@H](C(=O)O)n2cccc2)cc1)c1ccccc1", "values": [{"measurement": "EC50", "setting": "[1]", "value": "> 100", "unit": "µM"}]}
{"smiles": "Cc1oc(-c2ccccc2)nc1CCNc1ccc(C[C@@H](C(=O)O)n2cccc2)cc1", "values": [{"measurement": "Activity", "setting": "Mus musculus [11]", "value": "inactive"}]}
